What was measured:
[1] = target: T1, EBVpol (Epstein-Barr virus, UniProt P03198); assay: Inhibition of EBVpol activity at high salt; type: biochemical; settings: 20 mM PAA
T1 construct: Ac-BALF5 baculovirus vector, an expression plasmid vector bearing the full-length BALF5 gene; made in house; host or cells: Sf9 insect cells, recombinant baculoviruses pAc-BALF5 and pAc-BMRF1
Protocol: (§1) When assayed in the presence of BMRF1, its activity on CT DNA at 100 mM ammonium sulfate was greater than 100-fold increased over its activity alone, in the absence of salt.

[2] = tested on: activated calf thymus DNA; assay: DNA polymerase assay, incorporation of [32P]-dCMP into trichloroacetic acid-precipitable material; type: biochemical; settings: 100 mM ammonium sulfate; polypeptides in equimolar ratios
Protocol: The activity of the bacterially-expressed purified BMRF1(1-303)(“ΔC303”) polypeptide was examined in a DNA polymerase assay which measured incorporation of [^32P]-α-dCMP into trichloroacetic acid-precipitable material using activated calf thymus DNA and [^32P]-α-dCTP as the substrates in the presence of 100 mM ammonium sulfate (Tsurumi, T., T. Daikoku, and Y. Nishiyama, J Virol, 1994, 68(5): p. 3354-63). The BALF5 catalytic DNA polymerase subunit was obtained by expression in insect cells from the Ac-BALF5 baculovirus and purified by phosphocellulose and heparin affinity chromatography. The polypeptides were assayed in equimolar ratios and the specific activity (micromoles of dCMP incorporation per milligram of protein per hour) is shown in Table 3.
The GST-BMRF1 (1-303) polypeptide was bound to glutathione-agarose as described previously and cleaved overnight with 1/50 (w/w) factor Xa (NEBioLabs, Ipswich, Mass.) in 1 mM CaCl2. The cleaved BMRF1 (1-303) was then purified on DNA-cellulose, eluting at 300-500 mM NaCl. SDS-PAGE analysis confirmed the size of the uncleaved GST-BMRF1 (1-303) and the purified cleaved BMRF1 (1-303). The purified BMRF1 (1-303) was then shown to stimulate purified baculovirus-expressed BALF5 in 100 mM ammonium sulfate (see Table 3).

[3] = tested on: activated calf thymus (CT) DNA; assay: DNA polymerase elongation activity of purified BALF5 on activated calf thymus DNA; type: biochemical
Protocol: as §1

[4] = target: T2, GST-BMRF1(1-303) (Epstein-Barr virus, UniProt P03191); assay: Binding of radiolabeled BALF5-deletion polypeptides to GST-BMRF1(1-303); settings: 100 mM ammonium sulfate; [35S]-methionine labeled in vitro translated polypeptides
T2 construct: A GST fusion with BMRF1 residues 1-303 was constructed and expressed in E. coli BL21*DE3; made in house; host or cells: E. coli BL21*DE3
T2 sequence (P03191 1-303): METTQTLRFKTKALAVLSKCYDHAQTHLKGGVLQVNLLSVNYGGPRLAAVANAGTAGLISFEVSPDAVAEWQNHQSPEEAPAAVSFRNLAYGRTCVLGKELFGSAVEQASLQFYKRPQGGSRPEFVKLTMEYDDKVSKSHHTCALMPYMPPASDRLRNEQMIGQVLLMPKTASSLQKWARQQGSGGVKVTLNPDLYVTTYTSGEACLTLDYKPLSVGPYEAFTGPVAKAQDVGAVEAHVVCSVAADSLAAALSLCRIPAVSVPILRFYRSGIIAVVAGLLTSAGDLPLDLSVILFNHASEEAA
Protocol: (§2) To determine if the extreme carboxyl terminus of the EBV BALF5 subunit is necessary for functional interaction with BMRF1, a series of deletions of the BALF5 open reading frame was constructed in the pYES-X2 vector and [^35S]-methionine labeled polypeptides were expressed by in vitro transcription-translation as described (Kiehl, A. and D. I. Dorsky, J Virol, 1995, 69(3): p. 1669-77). These radiolabeled BALF5-deletion polypeptides were then assayed for binding to GST-BMRF1(1-303) in 100 mM ammonium sulfate. In vitro translated BALF5 bound to GST-BMRF1(1-303) but not to GST alone.

[5] = target: T3, GST (Schistosoma japonicum, UniProt P08515); assay: Non-specific binding of in vitro translated BALF5 to GST
T3 construct: made in house; host or cells: E. coli (bacterial extract)
T3 sequence (P08515 whole entry): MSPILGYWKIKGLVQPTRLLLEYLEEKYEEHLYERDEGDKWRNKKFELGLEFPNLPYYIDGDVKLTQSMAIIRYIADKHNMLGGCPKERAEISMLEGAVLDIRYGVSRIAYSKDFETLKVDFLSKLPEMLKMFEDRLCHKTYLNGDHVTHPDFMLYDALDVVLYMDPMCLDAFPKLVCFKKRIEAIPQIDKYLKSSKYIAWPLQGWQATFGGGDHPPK
Protocol: as §2
A GST fusion with BMRF1 residues 1-303 was constructed and expressed in E. coli BL21*DE3 as a soluble 58 kDa protein which bound specifically to glutathione-agarose. Glutathione agarose beads were incubated in bacterial extract containing either 27 kDa wild-type GST or 58 kDa GST-BMRF1 and extensively washed in PBS, or 50 mM Tris-HCl, pH 8.0 containing 0, 50, 100, 150, or 200 mM ammonium sulfate. The beads were then incubated in the same wash buffers in the presence of [^35S]-methionine labeled in vitro translated BALF5, and then the beads were washed extensively at the same salt concentrations as the incubations. The washed beads were boiled in SDS sample buffer and the eluted proteins were analyzed by SDS-PAGE/fluorography. […]

[6] = target: T4, GST-BMRF1 fusion (Epstein-Barr virus, UniProt P03191); assay: GST-BMRF1 fusion binding to BALF5 on glutathione agarose beads at varied salt
T4 construct: A GST fusion with BMRF1 residues 1-303 was constructed and expressed in E. coli BL21*DE3; made in house; host or cells: E. coli BL21*DE3
T4 sequence (P03191 1-303): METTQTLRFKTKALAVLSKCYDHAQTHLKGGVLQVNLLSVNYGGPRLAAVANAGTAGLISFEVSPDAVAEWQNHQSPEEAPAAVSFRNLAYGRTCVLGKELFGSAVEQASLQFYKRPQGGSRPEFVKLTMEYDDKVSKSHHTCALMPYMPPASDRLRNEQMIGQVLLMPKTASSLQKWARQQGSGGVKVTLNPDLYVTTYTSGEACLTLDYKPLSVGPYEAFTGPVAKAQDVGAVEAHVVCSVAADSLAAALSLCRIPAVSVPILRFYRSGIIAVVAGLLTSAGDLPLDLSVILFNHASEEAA
Protocol: A GST fusion with BMRF1 residues 1-303 was constructed and expressed in E. coli BL21*DE3 as a soluble 58 kDa protein which bound specifically to glutathione-agarose. Glutathione agarose beads were incubated in bacterial extract containing either 27 kDa wild-type GST or 58 kDa GST-BMRF1 and extensively washed in PBS, or 50 mM Tris-HCl, pH 8.0 containing 0, 50, 100, 150, or 200 mM ammonium sulfate. The beads were then incubated in the same wash buffers in the presence of [^35S]-methionine labeled in vitro translated BALF5, and then the beads were washed extensively at the same salt concentrations as the incubations. The washed beads were boiled in SDS sample buffer and the eluted proteins were analyzed by SDS-PAGE/fluorography. Measures taken to avoid the copurification of nucleic acids included washing the column at 600 mM NaCl and application of DNase to the column. And SDS-PAGE analysis was used to monitor GST-BMRF1 (1-303). […] Non-specific binding of BALF5 to the 27 kDa GST was very weak and independent of salt concentration.

[7] = tested on: oligo dG:poly dC; assay: Activity on synthetic primer:template, GC preference; type: biochemical
Source text: EBVpol and the modified EBVpol of this invention have strong amplification activity on GC-rich regions of DNA sequences; EBV DNA polymerase has 29-fold greater activity on synthetic oligo dG:poly dC (primer:template) compared to oligo dA:poly dT. GC-rich DNA sequences are the most difficult-to-amplify DNA sequences. […] Thus, the GC-preference of EBVpol and its variants makes EBVpol and its variants preferred reagents for whole genome amplification (“WGA”).

[8] = tested on: singly-primed M13mp18 single-stranded DNA circle; settings: cited from earlier work
[9] = BALF5 combined with BMRF1; cited from earlier work

T1 sequence (P03191 whole entry): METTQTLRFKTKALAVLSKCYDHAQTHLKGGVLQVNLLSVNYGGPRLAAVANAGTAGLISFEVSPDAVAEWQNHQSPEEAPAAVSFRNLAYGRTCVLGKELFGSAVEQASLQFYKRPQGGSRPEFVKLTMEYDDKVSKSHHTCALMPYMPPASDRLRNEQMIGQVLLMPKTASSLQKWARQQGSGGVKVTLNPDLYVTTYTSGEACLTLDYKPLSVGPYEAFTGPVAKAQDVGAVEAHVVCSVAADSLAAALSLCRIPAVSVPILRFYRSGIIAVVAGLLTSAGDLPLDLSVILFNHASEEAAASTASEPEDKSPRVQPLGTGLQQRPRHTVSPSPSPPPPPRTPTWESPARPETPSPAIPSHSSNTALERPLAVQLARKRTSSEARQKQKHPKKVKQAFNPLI
T1 sequence (P03198 whole entry, added parts left off): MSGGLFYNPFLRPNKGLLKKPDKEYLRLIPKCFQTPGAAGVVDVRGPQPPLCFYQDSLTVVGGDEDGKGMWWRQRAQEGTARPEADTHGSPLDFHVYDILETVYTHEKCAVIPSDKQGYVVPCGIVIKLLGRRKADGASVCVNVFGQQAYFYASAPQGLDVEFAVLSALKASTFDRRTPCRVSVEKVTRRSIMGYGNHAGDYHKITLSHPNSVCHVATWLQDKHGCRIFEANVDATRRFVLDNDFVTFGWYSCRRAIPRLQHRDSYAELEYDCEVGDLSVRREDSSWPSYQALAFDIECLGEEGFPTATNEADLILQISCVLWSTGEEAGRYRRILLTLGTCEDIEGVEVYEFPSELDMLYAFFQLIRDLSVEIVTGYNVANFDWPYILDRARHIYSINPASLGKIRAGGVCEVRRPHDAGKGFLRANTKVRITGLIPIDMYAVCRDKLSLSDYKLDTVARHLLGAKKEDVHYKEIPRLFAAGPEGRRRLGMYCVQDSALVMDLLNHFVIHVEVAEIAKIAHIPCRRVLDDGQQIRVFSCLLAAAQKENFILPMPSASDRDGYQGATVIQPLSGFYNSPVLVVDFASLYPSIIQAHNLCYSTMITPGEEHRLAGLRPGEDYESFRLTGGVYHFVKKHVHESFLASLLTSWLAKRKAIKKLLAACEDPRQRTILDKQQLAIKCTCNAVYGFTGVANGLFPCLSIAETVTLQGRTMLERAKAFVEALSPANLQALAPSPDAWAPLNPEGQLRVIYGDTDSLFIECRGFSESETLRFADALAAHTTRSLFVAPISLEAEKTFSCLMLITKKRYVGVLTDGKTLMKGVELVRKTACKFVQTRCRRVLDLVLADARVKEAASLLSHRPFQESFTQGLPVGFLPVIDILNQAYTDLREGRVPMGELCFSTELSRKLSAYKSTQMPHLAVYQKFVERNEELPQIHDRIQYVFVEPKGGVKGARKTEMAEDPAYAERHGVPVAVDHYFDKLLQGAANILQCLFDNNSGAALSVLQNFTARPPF

O=C(O)CP(=O)(O)O [PAA, phosphonoacetic acid]
inhibition at 20000 µM [1]: 60%

BALF5: 116-kDa catalytic subunit of EBV DNA polymerase with intrinsic 3′-5′ exonuclease activity, SEQ ID NO. 8
Specific Activity [2]: 1.7 micromoles of dCMP incorporation per milligram of protein per hour
DNA polymerase elongation activity on activated CT DNA ([3]; 100 mM ammonium sulfate, BALF5 alone): completely inactive
increase of activity on CT DNA over its activity alone in the absence of salt ([3]; in the presence of BMRF1, 100 mM ammonium sulfate): greater than 100 fold
DNA polymerase elongation activity on activated CT DNA ([3]; low ionic strength): significant DNA polymerase elongation activity
binding to GST-BMRF1(1-303) [4]: bound
binding to GST alone [5]: very weak
binding to the GST-BMRF1 fusion ([6]; 0 and 200 mM ammonium sulfate): bind poorly
binding to the GST-BMRF1 fusion ([6]; PBS and 50-150 mM ammonium sulfate): bound efficiently

EBV DNA polymerase holoenzyme: 1:1 complex of BALF5 catalytic subunit and BMRF1 processivity factor
activity on oligo dG:poly dC compared to oligo dA:poly dT [7]: 29 fold
strand-displacement activity (SDA) [8]: possesses signification SDA
rate of incorporation ([8]; singly-primed M13mp18 single-stranded DNA circle): approximately 7200 nucleotides in 10 minutes
ionic strength optimum of processive primer-dependent DNA synthesis [9]: 150 mM ammonium sulfate

B1: ΔC303: BMRF1 with deletion of the C-terminal 101 amino acids (residues 1-303) (protein)
chain: METTQTLRFKTKALAVLSKCYDHAQTHLKGGVLQVNLLSVNYGGPRLAAVANAGTAGLISFEVSPDAVAEWQNHQSPEEAPAAVSFRNLAYGRTCVLGKELFGSAVEQASLQFYKRPQGGSRPEFVKLTMEYDDKVSKSHHTCALMPYMPPASDRLRNEQMIGQVLLMPKTASSLQKWARQQGSGGVKVTLNPDLYVTTYTSGEACLTLDYKPLSVGPYEAFTGPVAKAQDVGAVEAHVVCSVAADSLAAALSLCRIPAVSVPILRFYRSGIIAVVAGLLTSAGDLPLDLSVILFNHASEEAA
Specific Activity [2]: 0.2 micromoles of dCMP incorporation per milligram of protein per hour

— patent US9994886B2, “Modified Epstein-Barr virus DNA polymerase and methods for isothermal DNA amplification” (priority 2013, dated 2018)
